From patent US10709687B2, “FLT3 receptor inhibitor at low dosage for the treatment of neuropathic pain” (INSTITUT NATIONAL DE LA SANTE ET DE LA RECHERCHE MEDICALE …, priority 2016, dated 2020)
Like-named read-outs stand apart in the source and are kept apart here.

How the values were obtained:
[1] = cited from earlier work
[2] = system: nerve injury-induced mechanical pain hypersensitivity; assay: Spinal Nerve Ligation (SNL) model, paw pressure test; type: in vivo, rat; conditions: for maximal inhibition on the SNL model in rat (dose): Method 1, no experimental details given; for Human Equivalent Dose (HED) from SNL rat dose: allometric FDA factor for the rat 6.2, human body weight 60 kg
Experimental: Adult Sprague Dawley rats (300-340 gr) (Janvier LABS, Le Genest Saint-Isle, France) were used according to the guidelines of the International Association for the Study of Pain. Rats were housed in cages with a 12/12 hr light/dark cycle and fed food and water ad libitum. Behavioral responsiveness of the rats was tested following ten days of habituation to the testing environment and the observer. Left side L5 spinal nerve was injured as described by Kim and Chung (1992) Pain 50, 355-363. Anesthesia was induced and maintained with isoflurane. A midline incision was made at the L3-S2 level and the dorsal vertebral column from L4 to S2 was exposed. Part of the L6 transverse process was carefully removed with fine rongeurs. The L5 spinal nerve were isolated and tightly ligated distal to the DRG with a 4-0 silk suture. The wound was closed in two layers using absorbable sutures. A similar procedure was performed for the sham surgery, except that spinal nerve was not isolated and not ligated. After surgery, the posture of the sham-operated and SNL rats was closely monitored before they were used in different experiments.
Mechanical hyperalgesia was measured as the threshold to a noxious mechanical stimulus. Nociceptive thresholds (NT) were determined in handled rats by a modification of the Randall-Selitto method (Kayser et al., Brain Res 1990; 508:329-332). Briefly, a constantly increasing pressure is applied to the rat hind paw until vocalization occurs. A Basile analgesimeter (Apelex, Massy, France; stylus tip diameter, 1 mm) was used. A 600-g cut-off value was determined to prevent tissue damage.
It was administered by oral gavage at different doses in a volume of 1 ml/kg body weight in a solution of dimethylsulfoxide (DMSO) at 3%. Control animals received an equal volume of DMSO 3%.
The data are presented as means±SEM. One-way ANOVA was used to assess individual group comparisons. […] The Newman-Keuls test was used for multiple comparisons between groups.

[3] = system: human tumor cells expressing FLT3-ITD (MV4,11); conditions: mouse xenograft model; literature references in Table 1; cited from earlier work
[4] = Active (recommended or clinically efficacious) dose for treating cancer in patients; type: in vivo; conditions: converted for a human with a body weight of 60 kg; advanced or recurrent head and neck cancers
Excerpt: Active doses for FLT3 receptor inhibitor, according to Method 1 as described above, are the recommended doses, as appearing in the drug label when the product is marketed. […] Such information may be found via various sources well known by the person skilled in the art, such as articles, FDA data publications, labeling of marketed products, Summary of Product Characteristics (SmPC) from the European Medicine Agency (EMA), clinical trial descriptions from the US National Institute of Health (available at www.clinicaltrials.gov) and information on the outer product packaging.

[5] = system: inflammatory pain (CFA-induced mechanical hypersensitivity); assay: Complete Freund's Adjuvant (CFA) inflammatory pain model, von Frey mechanical hypersensitivity; type: in vivo; conditions: CFA mice; sunitinib 5 or 20 mg/kg; measured 1 and 2 days after administration
Experimental: Adult mice (8-10 week-old) (Janvier LABS, Le Genest Saint-Isle, France) were used according to the guidelines of the International Association for the Study of Pain. Mice were housed in cages with a 12/12 hr light/dark cycle and fed food and water ad libitum. Behavioral responsiveness of the animals was tested following ten days of habituation to the testing environment and the observer. Before testing, mice were acclimatized for 60 min in the temperature and light-controlled testing room within a plastic cylinder or on wire mesh.
A 0.6 g-von Frey filament was used for measuring punctuate hindpaw mechanical hypersensitivity with the dynamic plantar aesthesiometer (Bioseb, France). Sharp withdrawal of the stimulated hindpaw was considered as a positive response. The procedure was applied 10 times and the percentage of positive responses was calculated. Basal positive responses were recorded twice during two, consecutive days.
Inflammatory pain was produced by local injection of Complete Freund's Adjuvant (CFA), which induces a prolonged swelling that becomes maximal at 24 hrs and persists for at least 7 days (Iadarola et al., Pain. 1988; 35:313-26). […] Mechanical hypersensitivity was measured 4 days later. […]

FLT3 = target: T1, FLT3 (Mus musculus, UniProt Q00342); assay: FL potentiation of capsaicin-induced [Ca2+]i response in DRG neurons primary culture; type: cell-based, mice; conditions: FL 0.56 nM, capsaicin 0.5 μM
T1 construct: Primary neuronal cultures were established from lumbar (L4 to L6) dorsal root ganglia (DRG) of adult mice; endogenous in cells; host or cells: primary DRG neurons from adult mice
T1 sequence (Q00342 28-1000): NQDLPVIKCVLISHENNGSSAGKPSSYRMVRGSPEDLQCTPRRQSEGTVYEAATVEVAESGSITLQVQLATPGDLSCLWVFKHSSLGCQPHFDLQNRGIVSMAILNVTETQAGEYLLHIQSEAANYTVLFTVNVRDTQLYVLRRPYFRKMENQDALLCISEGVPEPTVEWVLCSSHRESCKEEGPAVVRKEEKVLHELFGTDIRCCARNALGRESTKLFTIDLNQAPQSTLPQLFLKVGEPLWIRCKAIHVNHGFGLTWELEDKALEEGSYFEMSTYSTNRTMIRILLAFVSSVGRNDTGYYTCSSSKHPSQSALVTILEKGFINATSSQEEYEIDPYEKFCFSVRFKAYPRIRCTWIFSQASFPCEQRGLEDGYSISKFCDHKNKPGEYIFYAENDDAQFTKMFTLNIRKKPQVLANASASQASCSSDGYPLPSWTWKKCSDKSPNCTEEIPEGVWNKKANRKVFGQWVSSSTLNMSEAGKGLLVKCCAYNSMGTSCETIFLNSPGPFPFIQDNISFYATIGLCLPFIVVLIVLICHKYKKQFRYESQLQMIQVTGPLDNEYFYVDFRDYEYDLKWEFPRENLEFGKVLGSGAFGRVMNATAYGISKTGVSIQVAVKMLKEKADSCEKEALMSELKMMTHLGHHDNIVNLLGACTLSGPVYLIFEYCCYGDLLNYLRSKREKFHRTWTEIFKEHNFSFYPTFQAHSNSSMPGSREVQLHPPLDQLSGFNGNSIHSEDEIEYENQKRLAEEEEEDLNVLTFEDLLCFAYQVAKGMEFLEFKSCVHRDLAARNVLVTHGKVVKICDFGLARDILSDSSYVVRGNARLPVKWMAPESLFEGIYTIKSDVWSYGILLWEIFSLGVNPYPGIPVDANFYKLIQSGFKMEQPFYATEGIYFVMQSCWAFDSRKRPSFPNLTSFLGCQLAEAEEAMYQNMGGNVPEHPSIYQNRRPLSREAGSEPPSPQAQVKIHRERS
Experimental: Primary neuronal cultures were established from lumbar (L4 to L6) dorsal root ganglia (DRG) of adult mice as previously described (Boudes et al, J. Neurosci. 29, 46, 10060-10068). Ganglia were treated twice with collagenase A (1 mg/ml, Roche Diagnostic, France) for 45 minutes (37° C.) and then with trypsin-EDTA (0.25%, Sigma, St Quentin Fallavier, France) for 30 minutes. They were mechanically dissociated by passing 8 to 10 times through the tip of a fire-polished Pasteur pipette in neurobasal (Life Technologies, Cergy Pontoise, France) culture medium supplemented with 10% foetal bovine serum and DNase (50 U/ml, Sigma, St Quentin Fallavier, France). Isolated cells were collected by centrifugation and suspended in neurobasal culture medium supplemented with 2% B27 (Life Technologies), 2 mM glutamine, penicillin/streptomycin (20 U/ml, 0.2 mg/ml). […]
For intracellular Ca^2+ measurements, DRG neurons were used 18-30 h after plating as described previously. […] A Fura filter cube with 400 long pass dichroic and D510/40m emission band pass was used to collect fluorescence emissions separately for each wavelength. Images were acquired and analyzed with Metafluor software (Molecular Devices). Changes in intracellular calcium concentrations ([Ca^2+]i) were monitored as changes of the ratio of the fura-2-fluorescence intensity recorded at 340 nm and 380 nm excitation wavelengths (ΔF340/380). […]

[6] = system: human tumor cells expressing FLT3-ITD (MV4,11); assay: Tumor regression in mouse xenograft model sensitive to FLT3 inhibition; type: in vivo; conditions: allometric FDA factor for the mouse 12.3; 60 kg
Excerpt: The dose of FLT3 receptor inhibitor that induces tumor regression in animal models can be measured by using a mouse xenograft model, which is sensitive to FLT3 inhibition. Such a model may consist in an athymic immuno-deficient mouse implanted with human tumor cells that express a mutated, spontaneously activated, form of FLT3. […] An example of tumor cells that express FLT3-ITD is the MV4,11 cell line (Lange et al., Blood, 1987, 70:192-199).

## COc1cc(Nc2ncc(F)c(Nc3ccc4c(n3)N(COP(=O)(O)O)C(=O)C(C)(C)O4)n2)cc(OC)c1OC [Fostamatinib]
[1]; twice a day
  Active dose for treating cancer (by cancer type): 100-200 twice a day

## CCc1nc(C(N)=O)c(Nc2ccc(N3CCC(N4CCN(C)CC4)CC3)c(OC)c2)nc1NC1CCOCC1 [Gilteritinib]
[2]
  maximal inhibition on the SNL model in rat (dose): 2 mg/kg
  Human Equivalent Dose (HED) from SNL rat dose: HED = 19.4 mg
[2]; listed as gilteritinib
  Human Equivalent Dose (HED) from SNL rat dose: 19.4 mg

## Nc1ncc(-c2cnn(CCO)c2)c2scc(-c3ccc(NC(=O)Nc4cccc(F)c4)cc3)c12 [Ilorasertib]
[3]
  minimum inhibiting dose inducing maximal tumor regression: 20 mg/kg
[1]; once weekly, acute myelogenous leukaemia, myelodysplastic syndrome or chronic myelomonocytic leukaemia
  Active dose for treating cancer (by cancer type): 540 mg once weekly

## CO[C@@H]1[C@H](N(C)C(=O)c2ccccc2)C[C@H]2O[C@]1(C)n1c3ccccc3c3c4c(c5c6ccccc6n2c5c31)C(=O)NC4 [Midostaurin]
[2]
  Human Equivalent Dose (HED) from SNL rat dose: 39 mg
[2]; listed as Midostaurine
  Human Equivalent Dose (HED) from SNL rat dose: HED = 39 mg

## C1=C/COCc2cc(ccc2OCCN2CCCC2)Nc2nccc(n2)-c2cccc(c2)COC/1 [Pacritinib]
[1]; once daily
  Active dose for treating cancer (by cancer type): 400
[1]; twice daily
  Active dose for treating cancer (by cancer type): 200

## CC(C)(C)c1cc(NC(=O)Nc2ccc(-c3cn4c(n3)sc3cc(OCCN5CCOCC5)ccc34)cc2)no1 [Quizartinib]
[2]
  maximal inhibition on the SNL model in rat (dose): 0.77 mg/kg
  Human Equivalent Dose (HED) from SNL rat dose: HED = 7.5 mg
[2]; listed as quizartinib
  Human Equivalent Dose (HED) from SNL rat dose: 7.5 mg

## Cc1cc(C)c(/C=C2\C(=O)Nc3ccccc32)[nH]1 [Semaxinib]
[4]
  Active dose for treating cancer (by cancer type): 235 mg
[1]; advanced or recurrent head and neck cancers
  Active dose for treating cancer (by cancer type): 145 mg/m^2

## CNC(=O)c1cc(Oc2ccc(NC(=O)Nc3ccc(Cl)c(C(F)(F)F)c3)cc2)ccn1 [Sorafenib]
[3]
  minimum inhibiting dose inducing maximal tumor regression: 10 mg/kg

## CCN(CC)CCNC(=O)c1c(C)[nH]c(/C=C2\C(=O)Nc3ccc(F)cc32)c1C [Sunitinib]
[5]
  mechanical hypersensitivity (percentage of withdrawal after mechanical stimulation): inactive
FLT3; non-linear regression, read-out: IC50 for inhibition of FL potentiation of the [Ca2+]i peak response to capsaicin
  IC50: 0.7 nM
[2]; SNL rats, oral
  inhibiting dose giving 50% of inhibition (ID50) of SNL-induced mechanical hypersensitivity: 0.015 mg/kg
[2]; SNL rats, oral administration, paw pressure 24 hours after administration
  minimal dose for maximal inhibition of pain sensitivity: 0.075 mg/kg
[2]
  Human Equivalent Dose (HED) from SNL rat dose: HED = 0.73 mg
[2]; listed as sunitinib
  Human Equivalent Dose (HED) from SNL rat dose: 0.73 mg
[6]
  Human Equivalent Dose (HED) from mouse tumor regression dose: 98 mg

B1: FL: cytokine which is a natural ligand of the FLT3 receptor; from ABCYS SA (protein, UniProt P49771 27-235, looked up)
Fms-related tyrosine kinase 3 …: TQDCSFQHSPISSDFAVKIRELSDYLLQDYPVTVASNLQDEELCGGLWRLVLAQRWMERLKTVAGSKMQGLLERVNTEIHFVTKCAFQPPPSCLRFVQTNISRLLQETSEQLVALKPWITRQNFSRCLELQCQPDSSTLPPPWSPRPLEATAPTAPQPPLLLLLLLPVGLLLLAAAWCLHWQRTRRRTPRPGEQVPPVPSPQDLLLVEH
FLT3
  effect on [Ca2+]i peak response to capsaicin: elicited a potentiation
